Results published in patent publication US11407788B2, “Prostate-specific membrane antigen (PSMA) targeting peptides” (THE CURATORS OF THE UNIVERSITY OF MISSOURI, priority 2016, dated 2022).

Experiments:
[1] = test system: PSMA-positive LNCaP cells; test: Apparent Kd of FAM-labeled peptides by flow cytometry in LNCaP cells; assay type: cell-based; settings: 4° C., 1 h
LNCaP cells = test: Competitive inhibition of peptides and their corresponding phages; settings: for competitive inhibition of peptide to its corresponding phage: peptides at 100 μM
Method: Competitive binding inhibition between selected phages and their encoded peptides was examined in this study. […] The bound phages were recovered and titered as described above.
It was first evaluated whether these phages bind to LNCaP cells via specific interaction with their encoding peptides. LNCaP cells were pre-incubated with the encoding peptides, followed by washing and incubation with the corresponding phages. The bound phages were then eluted and titered.

PSMA = PSMA (Homo sapiens, UniProt Q04609); settings: Aggarwal et al. 2006; read-out: IC50 of inhibition of PSMA enzymatic activity; cited from earlier work
[2] = test system: PSMA-positive prostate cancer C4-2 cell line; test: Apparent Kd of FAM-labeled peptides by flow cytometry in C4-2 cells; assay type: cell-based

Chain of PSMA (Q04609 whole entry): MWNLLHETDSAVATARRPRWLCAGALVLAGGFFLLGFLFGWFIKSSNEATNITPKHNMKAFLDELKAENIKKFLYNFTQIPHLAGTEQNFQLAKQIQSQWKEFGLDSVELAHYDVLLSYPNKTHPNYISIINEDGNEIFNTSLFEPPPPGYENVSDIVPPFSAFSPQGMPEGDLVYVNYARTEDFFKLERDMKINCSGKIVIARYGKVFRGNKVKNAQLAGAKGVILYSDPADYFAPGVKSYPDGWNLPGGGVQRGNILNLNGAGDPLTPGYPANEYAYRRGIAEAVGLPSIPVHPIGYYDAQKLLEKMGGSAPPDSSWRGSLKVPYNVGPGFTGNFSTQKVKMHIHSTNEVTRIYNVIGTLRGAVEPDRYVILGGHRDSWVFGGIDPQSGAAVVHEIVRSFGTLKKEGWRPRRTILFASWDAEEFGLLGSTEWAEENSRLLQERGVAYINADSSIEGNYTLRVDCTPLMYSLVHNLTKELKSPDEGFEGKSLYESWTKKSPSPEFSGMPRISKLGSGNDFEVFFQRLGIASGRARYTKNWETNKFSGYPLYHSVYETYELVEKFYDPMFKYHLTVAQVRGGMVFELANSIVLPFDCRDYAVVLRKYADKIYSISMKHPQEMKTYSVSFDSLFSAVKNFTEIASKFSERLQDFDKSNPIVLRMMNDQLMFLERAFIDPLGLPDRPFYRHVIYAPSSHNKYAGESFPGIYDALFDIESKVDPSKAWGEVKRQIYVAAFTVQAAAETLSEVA

Sequence | competitive inhibition of peptide to its corresponding phage (LNCaP cells) | other results
KYLAYPDSVHIW | – | Kd [1]: 14.4 µM
YPTDWLWHGHNK | negligible | –
SMAGEQISWALI | negligible | –
WQPDTAHHWATL | – | Kd [1]: 23.6 µM; IC50 (PSMA): 23 µM
TGHLYPTRMEIQ [phage-derived peptide] | relatively weaker competitive inhibition | affinity to C4-2 cells compared to LNCaP cells [2]: less affinity
NRPDSAQFWLHH | negligible | competitive inhibition of peptide to its corresponding phage at various concentrations (LNCaP cells; series of concentrations): does not affect the binding
HSDNHYRPADKL [phage-derived peptide] | negligible | affinity to C4-2 cells compared to LNCaP cells [2]: less affinity
QPGHAILAQHPT | negligible | –
YVNSHSILGYTG | relatively weaker competitive inhibition | –
